± gives the expanded uncertainty stated by the source.
Test: mn = molality of the nth substance listed, in mol/kg
Details: 101 kPa, Liquid, Alternating current cell with electrodes

CCCCCCCCCCCC[N+](C)(C)C.[Br-] [dodecyltrimethylammonium bromide] + O
electrical conductivity [S/m]
Details | 293.15 K | 298.15 K | 303.15 K | 308.15 K | 313.15 K
m1 = 0.0015 | 0.014 ± 0.0003 | 0.0143 ± 0.00029 | 0.0144 ± 0.00031 | 0.0153 ± 0.0004 | 0.0169 ± 0.00046
m1 = 0.003 | 0.027 ± 0.0005 | 0.0273 ± 0.0006 | 0.0278 ± 0.0006 | 0.0286 ± 0.0007 | 0.032 ± 0.0009
m1 = 0.0045 | 0.0397 ± 0.0009 | 0.0412 ± 0.0008 | 0.0413 ± 0.0008 | 0.042 ± 0.001 | 0.0469 ± 0.0013
m1 = 0.006 | 0.0524 ± 0.0011 | 0.0535 ± 0.0011 | 0.055 ± 0.0011 | 0.0551 ± 0.0013 | 0.061 ± 0.0017
m1 = 0.0075 | 0.0645 ± 0.0014 | 0.0669 ± 0.0014 | 0.0675 ± 0.0014 | 0.068 ± 0.0016 | 0.0759 ± 0.0021
m1 = 0.009 | 0.0763 ± 0.0016 | 0.0784 ± 0.0016 | 0.0798 ± 0.0016 | 0.0808 ± 0.0019 | 0.0895 ± 0.0025
m1 = 0.0105 | 0.088 ± 0.0019 | 0.091 ± 0.0018 | 0.0908 ± 0.0018 | 0.0927 ± 0.0022 | 0.103 ± 0.0029
m1 = 0.012 | 0.0995 ± 0.0021 | 0.102 ± 0.0021 | 0.103 ± 0.0021 | 0.105 ± 0.0025 | 0.116 ± 0.0032
m1 = 0.0135 | 0.111 ± 0.0023 | 0.113 ± 0.0023 | 0.114 ± 0.0023 | 0.117 ± 0.0027 | 0.129 ± 0.0033
m1 = 0.015 | 0.121 ± 0.0025 | 0.123 ± 0.0025 | 0.126 ± 0.0026 | 0.128 ± 0.0028 | 0.137 ± 0.0033
m1 = 0.0165 | 0.13 ± 0.0027 | 0.132 ± 0.0027 | 0.132 ± 0.0027 | 0.134 ± 0.0029 | 0.144 ± 0.0035
m1 = 0.018 | 0.136 ± 0.0027 | 0.137 ± 0.0027 | 0.137 ± 0.0028 | 0.139 ± 0.003 | 0.149 ± 0.0035
m1 = 0.0195 | 0.139 ± 0.0028 | 0.14 ± 0.0028 | 0.141 ± 0.0028 | 0.142 ± 0.0031 | 0.152 ± 0.0036
m1 = 0.021 | 0.142 ± 0.0028 | 0.142 ± 0.0029 | 0.143 ± 0.0029 | 0.145 ± 0.0032 | 0.156 ± 0.0037
m1 = 0.0225 | 0.145 ± 0.0029 | 0.145 ± 0.0029 | 0.146 ± 0.0029 | 0.148 ± 0.0032 | 0.16 ± 0.0039
m1 = 0.024 | 0.147 ± 0.003 | 0.148 ± 0.003 | 0.149 ± 0.003 | 0.151 ± 0.0033 | 0.162 ± 0.0039
m1 = 0.0255 | 0.15 ± 0.003 | 0.151 ± 0.003 | 0.151 ± 0.003 | 0.154 ± 0.0034 | 0.165 ± 0.0039
m1 = 0.027 | 0.153 ± 0.0031 | 0.154 ± 0.0031 | 0.154 ± 0.0031 | 0.158 ± 0.0034 | 0.168 ± 0.004
m1 = 0.0285 | 0.156 ± 0.0031 | 0.156 ± 0.0031 | 0.156 ± 0.0031 | 0.16 ± 0.0035 | 0.171 ± 0.0041
m1 = 0.03 | 0.159 ± 0.0032 | 0.159 ± 0.0032 | 0.16 ± 0.0032 | 0.163 ± 0.0035 | 0.173 ± 0.0041
